{"source": "patent US11744799B2", "about": "“Topical composition” (MC2 Therapeutics Limited, priority 2017, dated 2023)", "assay": "Stability of 1% crisaborole solution in 50% ethanol/citrate buffer at various pH", "assay_type": "physicochemical", "details": "for % peak purity: 1% solution, 50% ethanol, 40° C. for one month", "protocol": "The sample was stored in a closed, airtight glass container with headspace comprising no more than 5% by volume of the total usable volume of the container. Each container containing a sample was stored at a constant temperature of 40° C. in a standard laboratory incubator (for example, Memmert IF260PLUS Incubator). The storage period for each sample was […]. The chemical stability of the crisaborole in each sample after the storage period was measured by a HPLC method. The HPLC method was as follows: A 1% solution of crisaborole was prepared with 50% ethanol and a citrate buffer to pH 5.5. The system was then stored at 40° C. for one month under the conditions of Example 3 and gave an 84% peak purity. Equivalent solutions were prepared and tested at pH 4.5, 6.5, 7.5 and 8.5.", "note": "“And” between values parts separate entries of the source, which are not always exact repeats. Equal values may be shown once."}
{"smiles": "N#Cc1ccc(Oc2ccc3c(c2)COB3O)cc1", "note": "[crisaborole]", "values": [{"measurement": "pH at which chemical stability is highest", "setting": "aqueous medium, pH 4.5 to 8.5 tested", "result": 5.5}, {"measurement": "% peak purity", "setting": "pH 4.5", "result": 79.5, "unit": "%"}, {"measurement": "% peak purity", "setting": "pH 5.5, citrate buffer", "result": "84% and 84.1%"}, {"measurement": "% peak purity", "setting": "pH 6.5", "result": 79.8, "unit": "%"}, {"measurement": "% peak purity", "setting": "pH 7.5", "result": 72.1, "unit": "%"}, {"measurement": "% peak purity", "setting": "pH 8.5", "result": 51.3, "unit": "%"}]}
